Reference: US20250115576A1, “THERAPEUTIC COMPOUNDS AND METHODS OF USE THEREOF” (Genentech, Inc., priority 2018, published 2025)
Structures can show the parent of a compound that is named as a salt.

Target: hNav1.7 (Homo sapiens (Human), UniProt Q15858)
Assay: Patch voltage clamp electrophysiology (EP), Syncropatch 384PE, CHO cells stably expressing Nav1.7
Assay type: cell-based
Conditions: holding potential −50 mV, 7.5 min compound incubation, read-out: EP_SP hNav1.7 EVO IC50
From the text: Example 64c. Electrophysiological Assay (EP) (In Vitro Assay)
Patch voltage clamp electrophysiology allows for the direct measurement and quantification of block of voltage-gated sodium channels (NaV's), and allows the determination of the time- and voltage-dependence of block which has been interpreted as differential binding to the resting, open, and inactivated states of the sodium channel (Hille, B., Journal of General Physiology (1977), 69: 497-515).
The following voltage clamp electrophysiology studies are performed on representative compounds using cells heterologously expressing Nav1.7 or Nav1.5 channels. cDNAs for Nav1.7 (NM_002977) and Nav1.5 (AC137587) are stably expressed in Chinese Hamstr Ovary (CHO) cells and CHL (Chinese Hamster Lung) cells respectively. Sodium currents are measured in the whole-cell configuration using Syncropatch 384PE (Nanlon Technologies, Germany). 1NPC®-384 chips with custom medium resistance and single hole mode are used. Internal solution consists of (in mM): […], 10 CsCl, 20 EGTA, and 10 Hepes (pH adjusted to 7.2); and external solution contains (in mM): 60 NMDG, 80 NaCl, 4 KCl, 1 MgCl2, 2 CaCl2, 2 D-Glucose monohydrate, 10 Hepes (pH adjusted to 7.4 with NaOH).
After system flushing, testing compounds are dissolved in external solution containing 0.1% Pluronic F-127. The chip is moved into the measuring head and the instrument primes the chip with external and internal solutions. 10 μl cells are added to the chip from a cell hotel, and a negative pressure of −50 mBar is applied to form a seal. Following treatment with seal enhancer solution and wash-off with external solution, negative pressure of −250 mbar is applied for 1 second to achieve the whole-cell configuration, followed by three washing steps in external solution. 20 μl of compounds is added to 40 μl in each well (1:3 dilution of compounds), and after mixing, 20 μl is removed so the volume is retained at 40 ul. After approximately 13 minutes recordings, 20 μl/well of 2 uM TTX, or 333 uM Tetracaine (for […]) is added to achieve full block.
For voltage protocol, an holding potential of −50 mV is applied during the whole experiment. A depolarizing step is applied to −10 mV for 10 ms, followed by a hyperpolarization step to −150 mV for 20 ms to allow channel recovery from inactivation. A second depolarizing step is applied from −150 mV to −10 mV for 10 ms, where currents are measured to derive blocking effects of compounds. Inhibition is determined based on 7.5 min of compound incubation.

Sequence of hNav1.7 (Q15858 other isoform, or with tags, fused parts or gaps): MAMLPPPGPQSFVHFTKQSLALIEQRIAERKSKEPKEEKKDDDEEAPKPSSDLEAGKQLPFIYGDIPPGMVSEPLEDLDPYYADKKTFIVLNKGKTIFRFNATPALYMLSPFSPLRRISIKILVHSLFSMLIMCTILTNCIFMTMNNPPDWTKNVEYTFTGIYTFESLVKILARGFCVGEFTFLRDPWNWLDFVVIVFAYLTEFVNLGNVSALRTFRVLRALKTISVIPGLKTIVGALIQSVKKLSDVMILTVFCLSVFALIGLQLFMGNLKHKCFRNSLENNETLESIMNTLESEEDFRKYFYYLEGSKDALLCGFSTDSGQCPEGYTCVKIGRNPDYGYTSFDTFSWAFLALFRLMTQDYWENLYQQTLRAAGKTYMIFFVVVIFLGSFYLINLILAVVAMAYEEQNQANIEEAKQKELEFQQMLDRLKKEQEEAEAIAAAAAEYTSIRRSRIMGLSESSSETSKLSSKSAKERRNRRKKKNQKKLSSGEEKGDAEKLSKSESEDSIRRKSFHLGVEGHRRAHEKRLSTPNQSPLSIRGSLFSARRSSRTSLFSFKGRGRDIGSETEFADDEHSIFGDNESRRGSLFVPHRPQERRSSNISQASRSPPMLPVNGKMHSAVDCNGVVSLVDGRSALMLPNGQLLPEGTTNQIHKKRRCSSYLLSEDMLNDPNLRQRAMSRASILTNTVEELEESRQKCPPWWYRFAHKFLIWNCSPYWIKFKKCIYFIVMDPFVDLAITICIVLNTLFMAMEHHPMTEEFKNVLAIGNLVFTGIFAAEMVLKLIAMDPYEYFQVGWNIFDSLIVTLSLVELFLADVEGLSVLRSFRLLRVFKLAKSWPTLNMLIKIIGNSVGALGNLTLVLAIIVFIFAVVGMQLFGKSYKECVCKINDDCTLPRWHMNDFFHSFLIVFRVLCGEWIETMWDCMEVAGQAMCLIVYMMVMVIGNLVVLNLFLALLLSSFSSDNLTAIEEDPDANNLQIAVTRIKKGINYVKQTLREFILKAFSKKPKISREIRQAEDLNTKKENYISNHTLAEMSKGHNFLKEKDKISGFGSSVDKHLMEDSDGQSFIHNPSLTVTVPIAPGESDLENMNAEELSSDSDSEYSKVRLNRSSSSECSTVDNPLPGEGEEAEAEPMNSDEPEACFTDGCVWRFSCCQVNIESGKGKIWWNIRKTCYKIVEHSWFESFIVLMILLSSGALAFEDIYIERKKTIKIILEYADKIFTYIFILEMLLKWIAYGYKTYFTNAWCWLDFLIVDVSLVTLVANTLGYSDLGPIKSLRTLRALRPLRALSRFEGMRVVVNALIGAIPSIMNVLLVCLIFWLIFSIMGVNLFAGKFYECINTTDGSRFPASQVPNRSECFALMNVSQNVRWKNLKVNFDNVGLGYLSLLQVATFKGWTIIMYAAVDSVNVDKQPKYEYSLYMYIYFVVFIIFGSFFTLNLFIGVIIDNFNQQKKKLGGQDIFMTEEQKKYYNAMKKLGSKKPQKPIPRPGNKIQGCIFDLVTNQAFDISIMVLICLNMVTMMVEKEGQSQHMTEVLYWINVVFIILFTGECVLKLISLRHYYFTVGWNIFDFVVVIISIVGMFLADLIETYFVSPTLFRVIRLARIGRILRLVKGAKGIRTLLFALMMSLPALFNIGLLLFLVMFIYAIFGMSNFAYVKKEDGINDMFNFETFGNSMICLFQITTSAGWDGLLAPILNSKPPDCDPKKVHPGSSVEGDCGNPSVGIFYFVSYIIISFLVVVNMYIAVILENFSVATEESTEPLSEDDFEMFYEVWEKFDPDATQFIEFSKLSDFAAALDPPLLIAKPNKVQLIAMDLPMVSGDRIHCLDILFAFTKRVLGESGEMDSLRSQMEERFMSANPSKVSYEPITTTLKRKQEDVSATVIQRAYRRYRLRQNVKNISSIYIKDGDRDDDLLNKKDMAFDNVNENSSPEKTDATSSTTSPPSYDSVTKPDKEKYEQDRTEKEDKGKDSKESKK

Structure (SMILES) | IC50 [nM]
Cc1nc(O[C@H]2CC[C@H](c3cccc(Cl)c3)C[C@@H]2N(C)C)ccc1S(=O)(=O)Nc1ccncn1 [Example 57, 6-(((1S,2S,4S)-4-(3-chloro-phenyl)-2-(dimethylamino)-cyclohexyl)oxy)-2-methyl-N-(pyrimidin-4-yl)pyridine-3-sulfonamide] | 0.919
CN(C)[C@H]1C[C@@H](c2cccc(SC(F)(F)F)c2)CC[C@@H]1Oc1ccc(S(=O)(=O)Nc2ccncn2)cn1 [Example 63, 6-(((1S,2S,4S)-2-(dimethy-lamino)-4-(3-((trifluoro-methyl)thio)phenyl)cyclohexyl)oxy)-N-(pyrimidin-4-yl) pyridine-3-sulfonamide] | 1.05
CN(C)[C@H]1C[C@@H](c2cccc(C(F)(F)F)c2)CC[C@@H]1Oc1ncc(S(=O)(=O)Nc2ccncn2)cc1F [Example 21, 6-(((1S,2S,4S)-2-(Dimethylamino)-4-(3-(trifluoromethyl)phenyl)cyclohexyl)oxy)-5-fluoro-N-(pyrimidin-4-yl)pyridine-3-sulfonamide] | 0.427
Cc1nc(O[C@H]2CC[C@H](c3cc(C(F)(F)F)ccc3F)C[C@@H]2N(C)C)ccc1S(=O)(=O)Nc1ccncn1 [Example 43, 6-(((1S,2S,4S)-2-(Dimethylamino)-4-(2-fluoro-5-(trifluoromethyl)phenyl)cyclohexyl)oxy)-2-methyl-N-(pyrimidin-4-yl)pyridine-3-sulfonamide formate] | 0.687
Cc1nc(O[C@H]2CC[C@H](c3cccc(C(F)(F)F)c3)C[C@@H]2N2CCCC2)ccc1S(=O)(=O)Nc1ccncn1 [Example 29, 2-Methyl-N-(pyrimidin-4-yl)-6-(((1S,2S,4S)-2-(pyrrolidin-1-yl)-4-(3-(trifluoromethyl)phenyl)-cyclohexyl)oxy)pyridine-3-sulfonamide] | 5.62
Cc1nc(O[C@H]2CC[C@H](c3cccc(C(F)(F)F)c3)C[C@@H]2N(C)C)c(F)cc1S(=O)(=O)Nc1ccncn1 [Example 53, 6-(((1S,2S,4S)-2-(Dimethylamino)-4-(3-(trifluoromethyl)phenyl)cyclohexyl)oxy)-5-fluoro-2-methyl-N-(pyrimidin-4-yl)pyridine-3-sulfonamide formate] | 0.989
CN(C)[C@H]1C[C@@H](c2cccc(C(F)(F)F)c2)CC[C@@H]1Oc1ncc(S(=O)(=O)Nc2ccncn2)cc1Br [Example 20, 5-bromo-6-(((1S,2S,4S)-2-(dimethylamino)-4-(3-(trifluoromethyl)phenyl)cyclohexyl)oxy)-N-(pyrimidin-4-yl)pyridine-3-sulfonamide formate] | 0.9
O=S(=O)(Nc1ccncn1)c1ccc(O[C@H]2CC[C@H](c3cccc(C(F)(F)F)c3)C[C@@H]2N2CCCCC2)nc1 [Example 26, 6-(((1S,2S,4S)-2-(piperidin-1-yl)-4-(3-(trifluoromethyl)phenyl)cyclohexyl)oxy)-N-(pyrimidin-4-yl)pyridine-3-sulfonamide] | 1.16
O=S(=O)(Nc1ccncn1)c1cnc(O[C@H]2CC[C@H](c3cccc(C(F)(F)F)c3)C[C@@H]2N2CCCC2)c(Cl)c1 [Example 18, 5-chloro-N-(pyrimidin-4-yl)-6-(((1S,2S,4S)-2-(pyrrolidin-1-yl)-4-(3-(trifluoromethyl)phenyl)-cyclohexyl)oxy)pyridine-3-sulfonamide] | 0.388
Cc1nc(O[C@H]2CC[C@H](c3cc(C(F)(F)F)ccc3Cl)C[C@@H]2N(C)C)ccc1S(=O)(=O)Nc1ccncn1 [Example 38, 6-(((1S,2S,4S)-4-(2-chloro-5-(trifluoromethyl)phenyl)-2-(dimethylamino)cyclohexyl)oxy)-2-methyl-N-(pyrimidin-4-yl)pyridine-3-sulfonamide] | 0.409
Cc1nc(O[C@H]2CC[C@H](c3cccc(C(F)(F)F)c3F)C[C@@H]2N(C)C)ccc1S(=O)(=O)Nc1ccncn1 [Example 46, 6-(((1S,2S,4S)-2-(Dimethylamino)-4-(2-fluoro-3-(trifluoromethyl)phenyl)cyclohexyl)oxy)-2-methyl-N-(pyrimidin-4-yl)pyridine-3-sulfonamide formate] | 0.917
CN(C)[C@H]1C[C@@H](c2cccc(C(F)(F)F)c2)CC[C@@H]1Nc1ccc(S(=O)(=O)Nc2ccncn2)nc1 [Example 5, 5-(((1S,2S,4S)-2-(Dimethylamino)-4-(3-(trifluoromethyl)phenyl)cyclohexyl)amino)-N-(pyrimidin-4-yl)pyridine-2-sulfonamide] | 8.33
CN(C)[C@H]1C[C@@H](c2cccc(C(F)(F)F)c2)CC[C@@H]1Oc1ncc(S(=O)(=O)Nc2ccncn2)cc1C1CC1 [Example 7, 5-Cyclopropyl-6-(((1S,2S,4S)-2-(dimethylamino)-4-(3-(trifluoromethyl)phenyl)cyclohexyl)oxy)-N-(pyrimidin-4-yl)pyridine-3-sulfonamide formate] | 1.16
Cc1nc(O[C@H]2CC[C@H](c3cccc(C(F)(F)F)c3C)C[C@@H]2N(C)C)ccc1S(=O)(=O)Nc1ccncn1 [Example 60, 6-(((1S,2S,4S)-2-(dimethyl-amino)-4-(2-methyl-3-(trifluoromethyl)phenyl)-cyclohexyl)oxy)-2-methyl-N-(pyrimidin-4-yl)pyridine-3-sulfonamide] | 0.909
Cc1nc(O[C@H]2CC[C@H](c3cccc(OC(F)F)c3)C[C@@H]2N(C)C)ccc1S(=O)(=O)Nc1ccncn1 [Example 52, 6-(((1S,2S,4S)-4-(3-(difluoromethoxy)phenyl)-2-(dimethylamino)cyclohexyl)oxy)-2-methyl-N-(pyrimidin-4-yl)pyridine-3-sulfonamide] | 1.82
CN(C)[C@H]1C[C@@H](c2cccc(C(F)(F)F)c2)CC[C@@H]1Nc1ncc(S(=O)(=O)Nc2ccncn2)cc1Cl [Example 4, 5-Chloro-6-(((1S,2S,4S)-2-(dimethylamino)-4-(3-(trifluoromethyl)phenyl)cyclohexyl)amino)-N-(pyrimidin-4-yl)pyridine-3-sulfonamide] | 0.765
CN(C)[C@H]1C[C@@H](c2cccc(C(F)(F)F)c2)CC[C@@H]1Oc1ncc(S(=O)(=O)Nc2ccncn2)cc1C#N [Example 6, 5-Cyano-6-(((1S,2S,4S)-2-(dimethylamino)-4-(3-(trifluoromethyl)phenyl)cyclohexyl)oxy)-N-(pyrimidin-4-yl)pyridine-3-sulfonamide formate] | 3.51
CCN(C)[C@H]1C[C@@H](c2cccc(C(F)(F)F)c2)CC[C@@H]1Oc1ccc(S(=O)(=O)Nc2ccncn2)c(C)n1 [Example 48, 6-(((1S,2S,4S)-2-(Ethyl(methyl)amino)-4-(3-(trifluoromethyl)phenyl)cyclohexyl)oxy)-2-methyl-N-(pyrimidin-4-yl)pyridine-3-sulfonamide] | 0.272
Cc1nc(O[C@H]2CC[C@H](c3ccc(F)c(C(F)(F)F)c3)C[C@@H]2N(C)C)ccc1S(=O)(=O)Nc1ccncn1 [Example 45, 6-(((1S,2S,4S)-2-(Dimethylamino)-4-(4-fluoro-3-(trifluoromethyl)phenyl)cyclohexyl)oxy)-2-methyl-N-(pyrimidin-4-yl)pyridine-3-sulfonamide formate] | 0.473
CCc1cc(S(=O)(=O)Nc2ccncn2)cnc1O[C@H]1CC[C@H](c2cccc(C(F)(F)F)c2)C[C@@H]1N(C)C [Example 24, 6-(((1S,2S,4S)-2-(Dimethylamino)-4-(3-(trifluoromethyl)phenyl)cyclohexyl)oxy)-5-ethyl-N-(pyrimidin-4-yl)pyridine-3-sulfonamide formate] | 8.33
CN(C)[C@H]1C[C@@H](c2cccc(C(F)(F)F)c2)CC[C@@H]1Oc1ccc(S(=O)(=O)Nc2ccncn2)c(Cl)n1 [Example 22, 2-Chloro-6-(((1S,2S,4S)-2-(dimethylamino)-4-(3-(trifluoromethyl)phenyl)cyclohexyl)oxy)-N-(pyrimidin-4-yl)pyridine-3-sulfonamide] | 2.21
CN(C)[C@H]1C[C@@H](c2ccc(Cl)c(C(F)(F)F)c2)CC[C@@H]1Nc1ccc(S(=O)(=O)Nc2ccncn2)cn1 [Example 11, 6-(((1S,2S,4S)-4-(4-chloro-3-(trifluoromethyl)phenyl)-2-(dimethylamino)cyclohexyl)amino)-N-(pyrimidin-4-yl)pyridine-3-sulfonamide formate] | 1.07
CN(C)[C@H]1C[C@@H](c2cc(C(F)(F)F)ccc2F)CC[C@@H]1Oc1ccc(S(=O)(=O)Nc2ccncn2)c(Cl)n1 [Example 44, 2-Chloro-6-(((1S,2S,4S)-2-(dimethylamino)-4-(2-fluoro-5-(trifluoromethyl)phenyl)-cyclohexyl)oxy)-N-(pyrimidin-4-yl)pyridine-3-sulfonamide formate] | 1.81
